{
  "source": "patent US12435320B2",
  "about": "“CRISPR having or associated with destabilization domains” (The Broad Institute, Inc., priority 2014, dated 2025)",
  "key": {"[1]": {"experiment": "Double nicking indel formation with sgRNA pairs", "format": "cell-based", "conditions": "substitution of Cas9n with Cas9H840A with a given sgRNA pair; eukaryotic system", "from_the_text": "Aspects of the invention relate to the expression of the gene product being decreased or a template polynucleotide being further introduced into the DNA molecule encoding the gene product or an intervening sequence being excised precisely by allowing the two 5′ overhangs to reanneal and ligate or the activity or function of the gene product being altered or the expression of the gene product being increased. In an embodiment of the invention, the gene product is a protein. Only sgRNA pairs creating 5′ overhangs with less than 8 bp overlap between the guide sequences (offset greater than −8 bp) were able to mediate detectable indel formation. […] Nonetheless, a pair of sgRNAs that will generate a 5′ overhang with Cas9n should in principle generate the corresponding 3′ overhang instead, and double nicking. […] Accordingly, in some embodiments, a recombination template is also provided. A recombination template may be a component of another vector as described herein, contained in a separate vector, or provided as a separate polynucleotide. In some embodiments, a recombination template is designed to serve as a template in homologous recombination, such as within or near a target sequence nicked or cleaved by a CRISPR enzyme as a part of a CRISPR complex. […]"}, "Mutants of human FKBP12": {"test_system": "Mutants of human FKBP12", "conditions": "cited from earlier work"}, "EGFP gene [2]": {"test_system": "EGFP gene", "experiment": "Decrease in EGFP positive cells in an EGFP-producing cell line treated with SpCas9-DD fusion protein and guide RNA", "format": "cell-based", "conditions": "DHFR-SpCas9-DHFR (DSPD); increasing dosages of TMP"}, "EGFP gene [3]": {"test_system": "EGFP gene", "experiment": "U2OS.EGFP knockdown assay, loss of EGFP fluorescence, high-content automated microscope imaging", "format": "cell-based", "conditions": "ligand added to the DD-SpCas9-DD fusion protein and EGFP guide RNA", "excerpt": "The low throughput, flow cytometry-readout was replaced with a high-throughput readout using a high-content, automated microscope imaging. This assay can be run in a 96-well format and the data can be analyzed by a high-throughput image analysis platform, called ImageExpress."}, "Factor VII": {"test_system": "Factor VII", "conditions": "LNP siRNA systems containing these lipids; hepatocytes in vivo; cited from earlier work"}, "mammalian DHFR (DHFRts)": {"test_system": "mammalian DHFR (DHFRts)", "conditions": "addition to cells expressing DHFRts; cited from earlier work"}, "dystrophin": {"test_system": "dystrophin", "conditions": "across 48 weeks; cited from earlier work"}, "[4]": {"test_system": "human embryonic stem cells (hESCs)", "experiment": "Mutagenic NHEJ by Cas9-D10A nickase in human embryonic stem cells", "format": "cell-based", "from_the_text": "The CRISPR enzyme is Cas9, and may be Cas9 from S. pyogenes or S. pneumoniae. In some embodiments, the CRISPR enzyme directs cleavage of one or both strands at the location of a target sequence, such as within the target sequence and/or within the complement of the target sequence. In some embodiments, the CRISPR enzyme directs cleavage of one or both strands within about 1, 2, 3, 4, 5, 6, 7, 8, 9, 10, 15, 20, 25, 50, 100, 200, 500, or more base pairs from the first or last nucleotide of a target sequence. In some embodiments, a vector encodes a CRISPR enzyme that is mutated to with respect to a corresponding wild-type enzyme such that the mutated CRISPR enzyme lacks the ability to cleave one or both strands of a target polynucleotide containing a target sequence. […] In some embodiments, a Cas9 nickase may be used in combination with guide sequenc(es), e.g., two guide sequences, which target respectively sense and antisense strands of the DNA target. This combination allows both strands to be nicked and used to induce NHEJ."}},
  "data": [
    {"molecule": "Cas9H840A: Cas9 with the H840A mutation", "values": [
      {"measurement": "indel formation", "setting": "[1]", "result": "no indel formation is observed"}
    ]},
    {"molecule": "CC[C@H](C(=O)N1CCCC[C@H]1C(=O)O[C@H](CCc1ccc(OC)c(OC)c1)c1cccc(OCCN2CCOCC2)c1)c1cc(OC)c(OC)c(OC)c1", "note": "[Shield-1]", "values": [
      {"measurement": "binding and stabilization of the DD", "setting": "Mutants of human FKBP12", "result": "bind to and stabilize the DD in a dose-dependent manner"}
    ]},
    {"molecule": "COc1cc(Cc2cnc(N)nc2N)cc(OC)c1OC", "note": "[TMP, trimethoprim]", "values": [
      {"measurement": "effect of ligand addition on the effect of the SpCas9-DD fusion protein", "setting": "EGFP gene [2]", "result": "increased the effect of the SpCas9-DD fusion protein in a dose-dependent manner"},
      {"measurement": "Effect of added DD ligand on the fusion protein's reduction of EGFP fluorescence", "setting": "EGFP gene [3]", "result": "increased the effect of the DSPD fusion protein in a dose-dependent manner"}
    ]},
    {"molecule": "CCCCC/C=C\\C/C=C\\CCCCCCCCOCC(CN(C)C)OCCCCCCCC/C=C\\C/C=C\\CCCCC", "note": "(stereo not shown) [DLinDMA, 1,2-dilinoleyloxy-3-N,N-dimethylaminopropane]", "values": [
      {"measurement": "gene silencing potency series", "setting": "Factor VII", "result": "DLinKC2-DMA>DLinKDMA>DLinDMA>>DLinDAP"}
    ]},
    {"molecule": "CN(Cc1cnc2nc(N)nc(N)c2n1)c1ccc(C(=O)N[C@@H](CCC(=O)O)C(=O)O)cc1", "note": "[methotrexate]", "values": [
      {"measurement": "degradation of DHFRts protein", "setting": "mammalian DHFR (DHFRts)", "result": "inhibited degradation of the protein partially"}
    ]},
    {"molecule": "1,2-dilinoleyloxy-keto-N,N-dimethyl-3-aminopropane [DLinKDMA]", "values": [
      {"measurement": "gene silencing potency series", "setting": "Factor VII", "result": "DLinKC2-DMA>DLinKDMA>DLinDMA>>DLinDAP"}
    ]},
    {"molecule": "CCCCC/C=C\\C/C=C\\CCCCCCCCC1(CCCCCCCC/C=C\\C/C=C\\CCCCC)OCC(CCN(C)C)O1", "note": "(stereo not shown) [DLinKC2-DMA, 1,2-dilinoleyl-4-(2-dimethylaminoethyl)-[1,3]-dioxolane]", "values": [
      {"measurement": "gene silencing potency series", "setting": "Factor VII", "result": "DLinKC2-DMA>DLinKDMA>DLinDMA>>DLinDAP"}
    ]},
    {"molecule": "eteplirsen", "values": [
      {"measurement": "Dystrophin positive fibers compared to baseline, average", "setting": "dystrophin", "result": 47, "unit": "%"},
      {"measurement": "Functional benefit", "setting": "dystrophin", "result": "significant functional benefit"}
    ]},
    {"molecule": "CCCCC/C=C\\C/C=C\\CCCCCCCC(=O)OCC(CN(C)C)OC(=O)CCCCCCC/C=C\\C/C=C\\CCCCC", "note": "(stereo not shown) [DLinDAP, 1,2-dilineoyl-3-dimethylammonium-propane]", "values": [
      {"measurement": "gene silencing potency series", "setting": "Factor VII", "result": "DLinKC2-DMA>DLinKDMA>DLinDMA>>DLinDAP"}
    ]},
    {"molecule": "Cas9-D10A: Cas9 nickase with the D10A mutation", "values": [
      {"measurement": "efficiency relative to nuclease (regular Cas9 without D10 mutation)", "setting": "[4]; double nickase, two sgRNAs targeted to different strands at the same location, hESCs", "result": "about 50%"},
      {"measurement": "induction of NHEJ and indels", "setting": "[4]; single nickase, with a single sgRNA", "result": "unable to induce NHEJ and create indels"}
    ]}
  ]
}
